Experimental findings from ChEMBL document CHEMBL1150731, “Constituents of Tritonia crocosmaeflora, II. Tricrozarin B, an antitumor naphthazarin derivative” (J Nat Prod, 1987) are described below.

Test [1] relates to CCRF S-180. The experiment in a line: Antitumor activity against mouse S180 cells xenografted ICR mouse at 50 mg/kg, ip relative to control. It counts as functional. The settings on record: route intraperitoneal.
The nature of test [2]: Cytotoxicity against human HeLaS3 cells. It is filed as functional, cell-based. The following applies: HeLa S3.

Values after ≈ are worked out from the molar mass of the structure shown.

What is called T/C is the result in the treated group divided by that in the control group, in per cent. For orientation: IC50 means the point on the concentration scale where inhibition reaches its midpoint. A higher IC50 goes with weaker potency in that assay. As to `COC1=C(OC)C(=O)c2c(O)c(OC)cc(O)c2C1=O` [TRICROZARIN B], the T/C in test [1] is listed as 146%. This molecule showed a concentration for half-maximal inhibition (IC50) in test [2] of 7 ng/mL (≈ 0.025 µM).
